Assay [1] deals with T1, NQO1 (Homo sapiens, UniProt P15559). The experiment in a line: In vitro reductase enzyme activity assay, NQO1. In kind it is biochemical. As to conditions: purified recombinant protein. As to the method:
(§1) To explore the anti-proliferative effects of MNPC, U87MG/EGFRVIII cells were treated with different doses of MNPC (0, 0.1, 0.5, 1 and 5 μM) for 5 days. […] Asparagine endopeptidase (AEP) is frequently overexpressed in numerous human cancers and mediates cancer cell invasion and metastasis. […] Since NQO1 and GSTP1 are the major binding proteins of MNPC, in vitro reductase enzyme activity assays with purified recombinant proteins was conducted. […] NQO1 also acts as an antioxidant enzyme by regenerating antioxidant forms of ubiquinone and vitamin E quinone. To explore whether the oxidative stress levels are correlated with the expression levels of antioxidant enzymes: NQO1 and GSTP1, the cellular ROS concentrations and cytotoxicity after MNPC treatment was examined. […] Thus, MNPC inhibits GSTP1 and NQ01 enzyme activities without altering their protein levels. […] The results were also confirmed by TUNEL assay.

Assay [2] has as its system U87MG/EGFRvIII cells. The experiment in a line: Murine intracranial xenograft model with U87MG/EGFRvIII cells. In kind it is in vivo, Nu/Nu nude mice. As to the method:
Nu/Nu nude mice were treated with increasing doses (3, 10 mg/kg) of MNPC by i.p. every two days for total 10 times (n=6 mice per group). The survival curves of brain tumor-bearing mice were calculated.
To assess the therapeutic potential of MNPC, a murine intracranial xenograft model was used, inoculated with U87MG/EGFRvIII cells. After 7 days of brain injection of the GBM cells and the tumor formation, the animals were treated with vehicle or different doses of MNPC (3 or 10 mg/kg) every 2 days for a total of 10 times. […] The ROS levels and signaling cascades were examined in the tissue samples derived from tumors extracted from MNPC or vehicle-treated mice.

Assay [3] concerns NQO1. The experiment in a line: NQO1 protein level upon treatment. The format is cell-based. The note with it: upon MNPC treatment. As to the method:
as §1

The subject of assay [4] is U87MG/EGFRvIII cells. The experiment in a line: Proliferation of U87MG/EGFRvIII cells. In kind it is cell-based. As to the method:
After structure-activity relationship (SAR) analysis, it was identified that that most compounds contained two aromatic rings bridged through an amide group.
as §1

In assay [5] the test system is U87MG/EGFRvIII cells. The experiment in a line: Apoptosis (caspase-3 activation, TUNEL assay). The format is cell-based. As to the method:
as §1

The target of assay [6] is T2, GSTP1 (Homo sapiens, UniProt P09211). The experiment in a line: Co-crystal structure with GSTP1. As to the method:
(§2) Experiments indicate that both NQO1 and GSTP1 were overexpressed in GBM, which inhibit the oxidative stress and prevent cancer cell death. Compounds which act as NQO1 and GSTP1 dual inhibitors suppress the proliferation and stimulated apoptosis in U87MG/EGFRVIII cells. […] Thus, these experiments indicate that a small dual inhibitor for both NQO1 and GSTP1 disrupting the redox homeostasis might be an innovative strategy for GBM therapy.

Assay [7] addresses T2, GSTP1. The experiment in a line: BIACORE binding assay, GSTP1. The note with it: MNPC immobilized to the chip.
Assay [8] deals with U87MG/EGFRvIII cells. The experiment in a line: Cell invasion assay. In kind it is cell-based. Here is the method:
as §1

Assay [9] addresses T3, Asparagine endopeptidase (AEP) (Homo sapiens, UniProt Q99538).
T3 construct: endogenous in cells; host or cells: U87MG/EGFRvIII (inferred from context)
T3 sequence (Q99538 18-323): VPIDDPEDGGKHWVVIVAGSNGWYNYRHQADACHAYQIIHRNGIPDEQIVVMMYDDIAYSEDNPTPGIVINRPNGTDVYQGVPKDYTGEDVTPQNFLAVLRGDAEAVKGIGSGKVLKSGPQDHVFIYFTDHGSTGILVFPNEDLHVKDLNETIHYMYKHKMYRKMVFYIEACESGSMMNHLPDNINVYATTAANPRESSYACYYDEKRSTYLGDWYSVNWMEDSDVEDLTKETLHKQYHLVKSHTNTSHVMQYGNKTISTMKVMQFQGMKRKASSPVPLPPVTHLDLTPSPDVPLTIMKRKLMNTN
The experiment in a line: AEP enzymatic activity assay. The format is cell-based. Here is the method: as §1

In assay [10] the target is T1, NQO1. The experiment in a line: Co-crystal structure with NQO1. Here is the method:
as §2

In assay [11] the test system is GSTP1. The experiment in a line: GSTP1 protein level upon treatment. In kind it is cell-based. The note with it: upon MNPC treatment. Here is the method: as §1
Assay [12] addresses T2, GSTP1. The experiment in a line: In vitro enzyme activity assay, GSTP1. The format is biochemical. The note with it: purified recombinant protein. As to the method:
as §1

The target in assay [13] is T1, NQO1. The experiment in a line: BIACORE binding assay, NQO1. As to conditions: MNPC immobilized to the chip. (In SPR one partner is held on a chip, and binding of the other changes the refractive index at the surface.)
Another assay concerns U87MG/EGFR cells. The experiment in a line: Cellular oxidative stress and cytotoxicity after MNPC treatment. In kind it is cell-based. As to the method: as §1
Where [14] appears, read: 3 or 10 mg/kg i.p. every 2 days, 10 times, especially 10 mg/kg.

Entries after “also recorded” stand apart in the source; their conditions may differ.

Broadly, the IC50 is the concentration that gives 50% inhibition. The term Kd denotes the concentration at which binding is half-saturated.

Regarding `Cc1onc(-c2ccccc2)c1C(=O)Nc1ncc([N+](=O)[O-])s1` [MNPC, 5-methyl-N-(5-nitrothiazol-2-yl)-3-phenylisoxazole-4-carboxamide], on NQO1 [1], the IC50 came to 926 nM. The “tumor growth (intracranial tumor volume)” value with U87MG/EGFRvIII cells [2] (3 or 10 mg/kg i.p. every 2 days, 10 times) is listed as “dose-dependent anti-tumor effect; also recorded: suppresses tumor growth”. In the assay on U87MG/EGFRvIII cells [2] (setting [14]), the body weight result is “significantly increased” and the survival rates entry is “prolonged the survival rate; also recorded: significantly increased; also recorded: elongates mouse life span”. Moreover, in the assay with U87MG/EGFRvIII cells [2] (tumors from treated mice), the “ROS levels in tumor tissue samples” value is listed as “strongly increased” and the “apoptotic caspase 3 in tumor tissue samples” value is on record as “activated”. Also, the “protein level of NQO1” value with NQO1 [3] is listed as “not changed”. Moreover, the cell proliferation result with U87MG/EGFRvIII cells [4] (U87MG/EGFRVIII cells, 0, 0.1, 0.5, 1 and 5 μM for 5 days) is listed as “dose-dependently inhibited”. Moreover, in the assay on U87MG/EGFRvIII cells [5] (TUNEL assay), the cell apoptosis result is reported as “dose-dependently increases”. Moreover, in the assay on U87MG/EGFRvIII cells [5] (U87MG/EGFRvIII cells), the caspase-3 activation entry is given as “induced”. Moreover, the “effect on GSTP1 active site in co-crystal structure” value on GSTP1 [6] is “blocked the active enzymatic sites”. The same compound came in with a Kd at GSTP1 [7] of 89.6 nM. Further, the cell invasion result with U87MG/EGFRvIII cells [8] was “no significant difference”. For the same compound, the AEP enzymatic activity result in [9] is given as “no significant difference”. The “effect on NQO1 active site in co-crystal structure” value at NQO1 [10] was “blocked the active enzymatic sites”. Also, the “protein level of GSTP1” value in the assay with GSTP1 [11] is reported as “not changed”. The IC50 on GSTP1 [12] was 797 nM. Moreover, on NQO1 [13], the Kd was 90.8 nM. Besides, the “Carbonyl Expression” value with U87MG/EGFR cells is recorded as “escalated”. In the assay with U87MG/EGFR cells (cytotoxicity), the LDH result is “escalated”. The ROS levels entry in the assay on U87MG/EGFR cells (dose-dependent) was “increased”. Further, the GSH/GSSH ratios result in the assay on U87MG/EGFR cells (in a dose-dependent manner) is “down-regulated”.

Turning to `CC(=O)Oc1ccccc1C(=O)Nc1ncc([N+](=O)[O-])s1` [NTZ, 2-((5-nitrothiazol-2-yl)carbamoyl)phenyl acetate], in the assay on U87MG/EGFRvIII cells [4], the “anti-proliferative activities toward U87MG/EGFRvIII cells compared with MNPC” value is recorded as “comparable anti-proliferative activities”.

As to `O=C(Nc1ncc([N+](=O)[O-])s1)c1ccccc1O` [TIZ, 2-hydroxy-N-(5-nitrothiazol-2-yl)benzamide], the “anti-proliferative activities toward U87MG/EGFRvIII cells compared with MNPC” value with U87MG/EGFRvIII cells [4] is listed as “comparable anti-proliferative activities”.

The record behind these values is patent US12478614B2, “Inhibitors of glutathione s-transferases (GSTs) and NAD(P)H:quinone oxidoreductase 1 (NQO1), pharmaceutical compositions, and uses in managing cancer” (Emory University, priority 2020, dated 2025).
